Source: patent publication US5010058A, “3,5,6-substituted derivatives of 1,2-O-isopropylidene-α,D-glucofuranose and intermediates for preparing these derivatives” (501 Greenwich Pharmaceuticals Incorporated, priority 1989, dated 1991)

Experiments:
[1] = system: BUD-8 skin cell fibroblasts; experiment: Proliferation of BUD-8 skin cell fibroblasts (3H-thymidine uptake); type: cell-based, human; conditions: for 3H-Thymidine uptake by BUD-8 skin cells: triplicates ± SD
Procedure: The human skin cell fibroblast line, BUD-8, was originally derived from the normal skin of a person and can now be obtained from the American Type Culture Collection.
The number of BUD-8 cells was expanded for use by culture in 25 cm^2 flasks at 37° C. in an atmosphere of 5% CO2 in air. At approximately 4-5 five day intervals, or when confluence was reached, the cells were passaged. This was accomplished by detaching the cells with a Teflon scraper, washing and reseeding the cells at a lower density into fresh tissue culture flasks.
The effect of these compound on the proliferative capacity of human BUD-8 skin fibroblasts was measured with the use of a ^3 H-thymidine incorporation assay using culture conditions which were similar to those used for the Con-A blastogenesis assay, described previously. Cultured skin cells were detached from the surface of tissue culture flasks mechanically with a Teflon scraper. The cells were washed, resuspended in incubation medium and the viabilities were determined. These cells were then plated in triplicate at a density of 2×10^3 cells/0.1 ml/microtiter well for the proliferation assays. […] Eighteen hours later, each of the BUD-8 cultures was examined morphologically for evidence of compound-induced toxicity such as cell rounding or granularity. The thymidine-pulsed cells were then precipitated and the amount of ^3 H-thymidine incorporation was counted in a liquid scintillation counter. […]
^a Experimental compounds were first suspended in DMSO or ethanol,
^b The effect of experimental compounds on the proliferation of BUD8

[2] = in vivo; cited from earlier work
[3] = system: normal spleen cells / splenic T-lymphocytes (Con-A stimulated); conditions: THERAFECTIN comparison; cited from earlier work

CCCCCCCOC1C(C(C)O)OC2OC(C)(C)OC21 [Ex. 3, 1,2-O-Isopropylidene-3-O-(n-heptyl)-6-deoxy-α,D-glucofuranose]
anti-proliferative effect on skin cells [1]: anti-proliferative effect that was statistically significant | inhibition at 1 µg/mL ([1]; Homo sapiens, Fibroblast, compound 1 ug/ml, percent change from no compound, read-out: 3H-Thymidine uptake by BUD-8 skin cells, % effect): 58% | inhibition at 10 µg/mL ([1]; Homo sapiens, Fibroblast, compound 10 ug/ml, percent change from no compound, read-out: 3H-Thymidine uptake by BUD-8 skin cells, % effect): 49% | inhibition at 25 µg/mL ([1]; Homo sapiens, Fibroblast, compound 25 ug/ml, percent change from no compound, read-out: 3H-Thymidine uptake by BUD-8 skin cells, % effect): 19% | inhibition at 100 µg/mL ([1]; Homo sapiens, Fibroblast, compound 100 ug/ml, percent change from no compound, read-out: 3H-Thymidine uptake by BUD-8 skin cells, % effect): 30% | inhibition at 300 µg/mL ([1]; Homo sapiens, Fibroblast, compound 300 ug/ml, percent change from no compound, read-out: 3H-Thymidine uptake by BUD-8 skin cells, % effect): 66% | inhibition at 750 µg/mL ([1]; Homo sapiens, Fibroblast, compound 750 ug/ml, percent change from no compound, read-out: 3H-Thymidine uptake by BUD-8 skin cells, % effect): 43% | 3H-Thymidine uptake by BUD-8 skin cells ([1]; compound 1 ug/ml): 2,589 ± 202 cpm | 3H-Thymidine uptake by BUD-8 skin cells ([1]; compound 10 ug/ml): 3,139 ± 232 cpm | 3H-Thymidine uptake by BUD-8 skin cells ([1]; compound 25 ug/ml): 4,978 ± 632 cpm | 3H-Thymidine uptake by BUD-8 skin cells ([1]; compound 100 ug/ml): 4,288 ± 723 cpm | 3H-Thymidine uptake by BUD-8 skin cells ([1]; compound 300 ug/ml): 2,067 ± 302 cpm | 3H-Thymidine uptake by BUD-8 skin cells ([1]; compound 750 ug/ml): 3,496 ± 1,084 cpm

CN(C)CCCO[C@@H]1[C@H]2OC(C)(C)O[C@H]2O[C@@H]1[C@H](O)CO [THERAFECTIN, 1,2-O-Isopropylidene-3-O-3('N,N'-dimethylamino-n-propyl)-α,D-glucofuranose]
toxicity [2]: little toxicity | utility in rheumatoid arthritis [2]: demonstrated utility in managing the signs and symptoms of rheumatoid arthritis | usual concentration for significant inhibition [3]: 1,000 ug/ml
